Assay results published in patent publication US11685741B2, “Fluorescent probes” (University of Massachusetts, priority 2017, dated 2023).
Where “and” joins values, the source holds several entries; their conditions need not be identical. Identical values can stand only once. Entries after “also recorded” stand apart in the source; their conditions may differ.

Key:
[1] = Binding studies of sensor with Fe3+ (Job's plot, titration, EDTA reversibility); conditions: 1:1 sensor-Fe^3+ complex; ACN/Tris-HCl buffer pH 7.3
Method: Job's method and UV-vis spectra were applied to study the binding stoichiometry between Rh-PK and Fe^3+ and monitored by the absorbance at 555 nm. […] The binding constant of this complex was calculated following a method reported previously (G. E. Tumambac, et al., Tetrahedron 2004, 60, 11293-11297), using absorption values at […] by the equations described below, and was determined to be 1.54×10^7 […].
The equations below was used to calculate the binding constants with stoichiometry of 1:1. L+S↔LS where L=sensor, S=Fe3+ and LS=sensor-Fe^3+ complex. The apparent binding constant is given by
[formula] Fe is the fraction of L that formed a complex, [LS]e is concentration at equilibrium, [L]0 is the initial concentration. Au, Am, and Ac are the absorbances of solutions of L (before any Fe^3+ was added), during the titration and at saturation, respectively. The concentration of free Fe^3+ at equilibrium, [S]e, is found with the following identity. [S]e=[S]o−[LS]e=[S]o−Fc[L]o The apparent binding constant K can then be calculated from
Reversibility experiments were carried out by adding EDTA to the complex in ACN/Tris-HCl buffer (10 mM, pH 7.3, v/v 3:1). […]
The stoichiometry of RhHPA-Fe^3+ was measured using Job's plot and mole ratio plots methods. B. Valeur, Molecular Fluorescence: Principles and Applications, Wiley-VCH. […] To determine the binding constant of chemosensor, a fluorescence titration of different amounts of Fe^3+ into the acetonitrile solution of sensor was carried out. […] The determination of the binding constant of RhHPA was calculated using the following equation: F−Fmin=[…](Fmax−Fmin)/Kd where F is the observed fluorescence, Fmax is the maximum fluorescence for the RhHPA-Fe^3+ complex at concentration of the equal reacted between sensor and metal cation, Fmin is the fluorescence intensity for occurring RhHPA-Fe^3+.
Absorption enhancement observation at 558 nm was plotted against the molar value of the [Fe^3+]/[Fe^3+]+RhHPA and [Fe^3+]/RhHPA. […] Binding constant of fluorescent sensor “RhHPA” was calculated and it was found as K=1.27×10^7 M^−1. […]

[2] = test system: Bovine aortic endothelial cells (BAEC); assay: Confocal imaging of Fe3+ with RhHPA in BAEC cells; format: cell-based
Method: Primary cultured Bovine aortic endothelial cells (BAEC) were passaged in Endothelial Basal Medium (Lonza) containing 5% fetal bovine serum. Before the experiment, the cells were cultured to about 8th generation. For experiment preparation, the cells were routinely subcultured using 0.05% trypsin-EDTA solution. The cells were seeded on the 25 cm^2 flask and medium change every two days until a 70% confluency before transferring into disks. The cells were seeded on the 1 cm^2 disk and a medium change the next day.
To evaluate the ability of RhHPA to capture Fe^3+ ions in cells, BAEC cells were incubated with the sensor (10 μM) for 30 min.
BAEC cells were incubated with 10 μM of ferric chloride (FeCl3) at 37° C. for overnight, then 10 μM of RhHPA was added to BAEC cells and was incubated at 37° C. for 30 min.
For the second control experiment, an Fe^3+-chelator SIH was added to iron-loaded and non-iron-loaded cells with RhHPA.
BAEC cells (without Fe^3+ treatment) were treated with RhHPA, MitoTracker Green FM and LysoTracker blue DND-22. As shown in FIG. 20A to FIG. 20H, there are partial colocalization between RhHPA-Fe^3+ and the MitoTracker (FIG. 20E) as well as that between RhHPA-Fe^3+ and the LysoTracker (FIG. 20F); however, a […] colocalization was observed among RhHPA-Fe^3+, MitoTracker and LysoTracker (FIG. 20G).

[3] = test system: cells in the culture experiments; assay: Cell permeability and toxicity in the culture experiments; format: cell-based
[4] = Effect of pH on fluorescence of sensor and its Fe complex; format: physicochemical; conditions: pH adjusted with HCl/NaOH
[5] = Metal ion sensing: UV-vis and fluorescence response to Fe3+ and other metal ions; conditions: one equivalent Fe^3+, ACN/Tris-HCl buffer pH 7.3
Method: The spectroscopic properties of Rh-PK and its interactions with various metal ions were evaluated in acetonitrile (ACN)/Tris-HCl buffer (10 mM, pH 7.3, v/v, 3:1). […] The changes in UV-Vis spectra after the addition of various ions are shown in FIG. 2, which is an absorbance spectrum of 100 μM sensor with various metal ions (100 μM for Ni^+2, Cu^+, Cu^+2, Zn^+2, Pb, Fe^+2, Fe^+3, Cr^+3, Hg^+2, Mn^+2, Ag^+, and Co^+2; 200 μM for K^+, Na^+, Ca^2+ and Mg^2+) in the ACN/Tris buffer (10 mM, pH 7.3, v/v 3:1).
When Fe^3+ was added into the solution of Rh-PK, a significant enhancement of fluorescence (>12-fold with 1.0 equiv of Fe^3+) was observed.
The interferences from the other metal ions with Rh-PK in its response to Fe^3+ was examined. […] Each of the 12 metal ions was pre-incubated with Rh-PK before 1 equiv. of Fe^3+ was added, the fluorescence response was then measured.
The stock solution of sensor and metal ions were prepared at the concentration of 1 mM. M. P. Walkees, Mutat. Res., 2003, 533, 107; M. Waisberg, et al., Toxicology, 2003, 192, 95.
The UV-vis. and fluorescence spectra of RhHPA to various possible interfering metal ions and its selectivity for Fe^3+ were examined. See FIG. 6, which is a plot of absorbance dependent on the concentration of Fe^3+ in the range from 0 to 2 equivalents in ACN/Tris-HCl buffer (10 mM, pH 7.3, v/v 2:1); FIG. 7, which is a Job's plot between Fe^3+ and RhHPA, indicating the 1:1 binding mode for sensor and iron(III). […] Addition of Na^+, K^+, Ca^2+, Mg^2+, Cr^3+, […], Hg^2+, Cu^2+, Pb^2+, Zn^2+, Fe^2+, Co^2+, Ni^2+, and Ag^+ exerted little or no effect on the emission of RhHPA, while remarkable fluorescence enhancement was detected upon the addition of Fe^3+ by excitation of the rhodamine fluorophore at 535 nm.
Experiments of iron(III) with other metal ions were investigated by means of the fluorescence response of RhHPA toward Fe^3+ in the presence of various other metal ions such as Na^+, K^+, Ca^2+, Mg^2+, Cr^3+, Hg^2+, Cu^2+, Pb^2+, Zn^2+, Fe^2+, Co^2+, Ni^2+, Cd^2+, and Ag^+. […] for Fe^3+ had no changes with addition of other metal ions. Cu(II) and Zn(II) increased the fluorescence intensity slightly.

apparent binding constant [1]: 1.27e+07 M⁻¹
pH range over which sensor (and Fe complex) fluorescence is stable / working pH range [4]: 5-9 and 5 to 9
SMILES: CCN(CC)c1ccc2c(c1)Oc1cc(N(CC)CC)ccc1C21c2ccccc2C(=O)N1/N=C/c1cccc(CO)n1 [RhHPA, (E)-3′,6′-bis(diethylamino)-2-(((6-(hydroxymethyl)pyridin-2-yl)methylene)amino)spiro[isoindoline-1,9′-xanthen]-3-one]
increase in fluorescent intensity in Fe^3+-treated cells ([2]; 10 μM FeCl3 overnight, then 10 μM RhHPA 30 min): ~8 fold
fluorescence enhancement in cells ([2]; 10 μM sensor, 30 min, no Fe^3+ supplementation): 4 fold
change in fluorescence signal, Fe^3+ then chelator ([2]; 20 μM Fe^3+ overnight, then 100 μM SIH, then 10 μM RhHPA, versus Fe(III) supplement): large decrease in fluorescence signal
change in fluorescence signal with chelator ([2]; 100 μM SIH, non-iron-loaded cells): small decrease in fluorescence signal
toxicity for cells ([3]; culture experiments): non-toxic
cell permeability ([3]; live cells in culture): excellent cell permeability; also recorded: cell permeable
increase in fluorescence emission intensity [5]: ~20 fold
